From ChEMBL document CHEMBL4602605, “Fluoroquinolones structural and medicinal developments (2013-2018): Where are we now?” (Bioorg Med Chem, 2019) come the findings set out here.

What all share (type): functional
Experiment [1] concerns Pseudomonas aeruginosa. The experiment in a line: Antimicrobial activity against Pseudomonas aeruginosa PAO1 by CLSI-based broth microdilution method. On the technique in general: Broth dilution looks for growth in wells or tubes with falling amounts of substance.
The test system of experiment [2] is Staphylococcus aureus. Nature of the experiment: Antimicrobial activity against Staphylococcus aureus ATCC 29213 by CLSI-based broth microdilution method.
Experiment [3] has as its system Escherichia coli. Nature of the experiment: Antimicrobial activity against tolC deficient Escherichia coli KD65 by CLSI-based broth microdilution method.
[4] abbreviates: Staphylococcus aureus, ATCC 29213, read-out: MIC.
The mark [5] stands for this setting: Escherichia coli, KD65, read-out: MIC.

Values after ≈ are worked out from the molar mass of the structure shown. Some results are limits rather than exact numbers.

One may read the MIC as the smallest concentration in the dilution series that meets the test's criterion for growth inhibition. With `O=C(O)c1cn(C2CC2)c2c3c(c(F)cc2c1=O)N1CCCC1CCO3` (stereo not given), the minimal inhibitory concentration (MIC) in experiment [1] came to 21 µg/mL (≈ 58.6 µM); in experiment [2] (setting [4]), 0.21 µg/mL (≈ 0.586 µM); in experiment [3] (setting [5]), 0.008 µg/mL (≈ 0.0223 µM).
Taken in the same sequence, the figures for `O=C(O)c1cn(C2CC2)c2c3c(c(F)cc2c1=O)N1CCCC1CS(=O)(=O)C3` (stereo not given) were above 64 µg/mL, 1 µg/mL (≈ 2.46 µM) and 0.25 µg/mL (≈ 0.615 µM).
Taken in the same sequence, the figures for `N[C@H]1C[C@H]2CCOc3c(c(F)cc4c(=O)c(C(=O)O)cn(C5CC5)c34)N2C1` were 0.093 µg/mL (≈ 0.249 µM), 0.015 µg/mL (≈ 0.0402 µM) and 0.004 µg/mL (≈ 0.0107 µM).
For `N[C@@H]1C[C@H]2CCCc3c(c(F)cc4c(=O)c(C(=O)O)cn(C5CC5)c34)N2C1` the same measures were 32 µg/mL (≈ 86.2 µM), 8 µg/mL (≈ 21.5 µM) and 8 µg/mL (≈ 21.5 µM).
As for `O=C(O)c1cn(C2CC2)c2c3c(c(F)cc2c1=O)N1CCCC1C(=O)NC3` (stereo not given), the MIC in experiment [1] is above 64 µg/mL; in experiment [2] (setting [4]) it was 16 µg/mL (≈ 43.1 µM); in experiment [3] (setting [5]), 8 µg/mL (≈ 21.5 µM).
`CC(=O)N1Cc2c(c(F)cc3c(=O)c(C(=O)O)cn(C4CC4)c23)N2CCCC2C1` (stereo not given): the minimal inhibitory concentration (MIC) is above 16 µg/mL in experiment [1], 0.082 µg/mL (≈ 0.205 µM) in experiment [2] (setting [4]) and 0.2 µg/mL (≈ 0.501 µM) in experiment [3] (setting [5]).
For `O=C(O)c1cn(C2CC2)c2c3c(c(F)cc2c1=O)N1CCCC1COC3` (stereo not given) the same measures were above 64 µg/mL, 0.5 µg/mL (≈ 1.4 µM) and 1 µg/mL (≈ 2.79 µM).
Taken in the same sequence, the figures for `N[C@@H]1CCN2c3c(F)cc4c(=O)c(C(=O)O)cn(C5CC5)c4c3COC[C@H]12` were 0.5 µg/mL (≈ 1.34 µM), 2 µg/mL (≈ 5.36 µM) and 0.004 µg/mL (≈ 0.0107 µM).
Taken in the same sequence, the figures for `N[C@H]1CCN2c3c(F)cc4c(=O)c(C(=O)O)cn(C5CC5)c4c3CNC[C@H]12` were 0.5 µg/mL (≈ 1.34 µM), 1 µg/mL (≈ 2.69 µM) and at most 0.06 µg/mL.
As for `O=C(O)c1cn(C2CC2)c2c3c(c(F)cc2c1=O)N1CCCC1C/C(=N\O)C3` (stereo not given), the MIC in experiment [1] is above 16 µg/mL; in experiment [2] (setting [4]) it was 0.125 µg/mL (≈ 0.324 µM); in experiment [3] (setting [5]) it was 0.03 µg/mL (≈ 0.0778 µM).
Taken in the same sequence, the figures for `N[C@@H]1C[C@@H]2CCCc3c(c(F)cc4c(=O)c(C(=O)O)cn(C5CC5)c34)N2C1` were 1 µg/mL (≈ 2.69 µM), 0.25 µg/mL (≈ 0.673 µM) and 0.25 µg/mL (≈ 0.673 µM).
For `O=C(O)c1cn(C2CC2)c2c(cc(F)c3c2nnn3-c2ccc(F)cc2)c1=O` the same measures were 40 µg/mL (≈ 105 µM), 0.06 µg/mL (≈ 0.157 µM) and 0.25 µg/mL (≈ 0.654 µM).
Taken in the same sequence, the figures for `CN1Cc2c(c(F)cc3c(=O)c(C(=O)O)cn(C4CC4)c23)N2CCCC2C1` (stereo not given) were above 64 µg/mL, 32 µg/mL (≈ 86.2 µM) and 2 µg/mL (≈ 5.38 µM).
Regarding `N[C@@H]1C[C@H]2COCc3c(c(F)cc4c(=O)c(C(=O)O)cn(C5CC5)c34)N2C1`, the MIC in experiment [1] was found to be 0.25 µg/mL (≈ 0.67 µM); in experiment [2] (setting [4]), 0.015 µg/mL (≈ 0.0402 µM); in experiment [3] (setting [5]), 0.008 µg/mL (≈ 0.0214 µM).
Taken in the same sequence, the figures for `O=C(O)c1cn(C2CC2)c2c3c(c(F)cc2c1=O)N1CCCC1CN=C3` (stereo not given) were 2 µg/mL (≈ 5.63 µM), 0.25 µg/mL (≈ 0.703 µM) and 0.25 µg/mL (≈ 0.703 µM).
For `O=C(O)c1cn(C2CC2)c2c3c(c(F)cc2c1=O)N1CCCC1CC(O)C3O` (stereo not given) the same measures were 8 µg/mL (≈ 20.6 µM), below 0.06 µg/mL and below 0.06 µg/mL.
Taken in the same sequence, the figures for `N[C@H]1CCN2c3c(F)cc4c(=O)c(C(=O)O)cn(C5CC5)c4c3CCC[C@H]12` were 0.29 µg/mL (≈ 0.781 µM), 0.015 µg/mL (≈ 0.0404 µM) and 0.004 µg/mL (≈ 0.0108 µM).
`N[C@@H]1C[C@@H]2CC=Cc3c(c(F)cc4c(=O)c(C(=O)O)cn(C5CC5)c34)N2C1`: the MIC in experiment [1] amounted to 1 µg/mL (≈ 2.71 µM); in experiment [2] (setting [4]) it was 0.25 µg/mL (≈ 0.677 µM); in experiment [3] (setting [5]) it was 0.125 µg/mL (≈ 0.338 µM).
Take `N[C@H]1C[C@H]2CCCc3c(c(F)cc4c(=O)c(C(=O)O)cn(C5CC5)c34)N2C1`: the minimal inhibitory concentration (MIC) in experiment [1] was 0.5 µg/mL (≈ 1.35 µM); in experiment [2] (setting [4]) it was 0.5 µg/mL (≈ 1.35 µM); in experiment [3] (setting [5]), 0.015 µg/mL (≈ 0.0404 µM).
Consider `O=C(O)c1cn(C2CC2)c2c3c(c(F)cc2c1=O)N1CCCC1CC=C3` (stereo not given), for which the MIC turned out to be 1 µg/mL (≈ 2.82 µM) in experiment [1], 0.5 µg/mL (≈ 1.41 µM) in experiment [2] (setting [4]) and 0.03 µg/mL (≈ 0.0847 µM) in experiment [3] (setting [5]).
As for `N[C@H]1CCN2c3c(F)cc4c(=O)c(C(=O)O)cn(C5CC5)c4c3C=CC[C@H]12`, the minimal inhibitory concentration (MIC) in experiment [1] came to 0.16 µg/mL (≈ 0.433 µM); in experiment [2] (setting [4]) it was 0.007 µg/mL (≈ 0.0189 µM); in experiment [3] (setting [5]), 0.0022 µg/mL (≈ 0.00596 µM).
For `N[C@@H]1CCN2c3c(F)cc4c(=O)c(C(=O)O)cn(C5CC5)c4c3C=CC[C@H]12` the same measures were 0.38 µg/mL (≈ 1.03 µM), 0.045 µg/mL (≈ 0.122 µM) and 0.06 µg/mL (≈ 0.162 µM).
Taken in the same sequence, the figures for `O=C(O)c1cn(C2CC2)c2c3c(c(F)cc2c1=O)N1CCCC1CNC3` (stereo not given) were 16 µg/mL (≈ 44.8 µM), 0.25 µg/mL (≈ 0.7 µM) and 0.125 µg/mL (≈ 0.35 µM).
Turning to `N[C@@H]1CCN2c3c(F)cc4c(=O)c(C(=O)O)cn(C5CC5)c4c3C=NC[C@H]12`, the values for the MIC in experiment [1], in experiment [2] (setting [4]) and in experiment [3] (setting [5]) were 1 µg/mL (≈ 2.7 µM), 4 µg/mL (≈ 10.8 µM) and 0.125 µg/mL (≈ 0.337 µM), respectively.
For `N[C@@H]1C[C@H]2CC=Cc3c(c(F)cc4c(=O)c(C(=O)O)cn(C5CC5)c34)N2C1` the same measures were 32 µg/mL (≈ 86.6 µM), 2 µg/mL (≈ 5.41 µM) and 2 µg/mL (≈ 5.41 µM).
Regarding `N[C@@H]1CCN2c3c(F)cc4c(=O)c(C(=O)O)cn(C5CC5)c4c3CCC[C@H]12`, the figures for the MIC in experiment [1], in experiment [2] (setting [4]) and in experiment [3] (setting [5]) were 0.125 µg/mL (≈ 0.337 µM), 0.03 µg/mL (≈ 0.0808 µM) and 0.004 µg/mL (≈ 0.0108 µM), respectively.
For `N[C@H]1C[C@@H]2CC=Cc3c(c(F)cc4c(=O)c(C(=O)O)cn(C5CC5)c34)N2C1` the same measures were 0.22 µg/mL (≈ 0.596 µM), at most 0.06 µg/mL and 0.008 µg/mL (≈ 0.0217 µM).
For `CO/N=C1/Cc2c(c(F)cc3c(=O)c(C(=O)O)cn(C4CC4)c23)N2CCCC2C1` (stereo not given) the same measures were 64 µg/mL (≈ 160 µM), 1 µg/mL (≈ 2.5 µM) and 0.25 µg/mL (≈ 0.626 µM).
Taken in the same sequence, the figures for `N[C@H]1CCN2c3c(F)cc4c(=O)c(C(=O)O)cn(C5CC5)c4c3C=NC[C@H]12` were 0.5 µg/mL (≈ 1.35 µM), 2 µg/mL (≈ 5.4 µM) and at most 0.06 µg/mL.
In the case of `O=C(O)c1cn(C2CC2)c2c3c(c(F)cc2c1=O)N1CCCC1CCC3` (stereo not given), the MIC in experiment [1] came out at 17 µg/mL (≈ 47.7 µM); in experiment [2] (setting [4]), 0.1 µg/mL (≈ 0.281 µM); in experiment [3] (setting [5]), 0.18 µg/mL (≈ 0.505 µM).
Taken in the same sequence, the figures for `C/N=C1/Cc2c(c(F)cc3c(=O)c(C(=O)O)cn(C4CC4)c23)N2CCCC2C1` (stereo not given) were above 32 µg/mL, 0.25 µg/mL (≈ 0.652 µM) and 0.06 µg/mL (≈ 0.156 µM).
Consider `N[C@H]1CCN2c3c(F)cc4c(=O)c(C(=O)O)cn(C5CC5)c4c3COC[C@H]12`, for which the values for the MIC in experiment [1], in experiment [2] (setting [4]) and in experiment [3] (setting [5]) were 0.25 µg/mL (≈ 0.67 µM), 0.0082 µg/mL (≈ 0.022 µM) and 0.002 µg/mL (≈ 0.00536 µM), respectively.
Taken in the same sequence, the figures for `N[C@H]1C[C@H]2CC=Cc3c(c(F)cc4c(=O)c(C(=O)O)cn(C5CC5)c34)N2C1` were 64 µg/mL (≈ 173 µM), 8 µg/mL (≈ 21.7 µM) and 16 µg/mL (≈ 43.3 µM).
Taken in the same sequence, the figures for `N[C@H]1C[C@@H]2CCCc3c(c(F)cc4c(=O)c(C(=O)O)cn(C5CC5)c34)N2C1` were 0.45 µg/mL (≈ 1.21 µM), 0.038 µg/mL (≈ 0.102 µM) and 0.006 µg/mL (≈ 0.0162 µM).
Taken in the same sequence, the figures for `N[C@H]1C[C@H]2COCc3c(c(F)cc4c(=O)c(C(=O)O)cn(C5CC5)c34)N2C1` were 0.38 µg/mL (≈ 1.02 µM), 0.125 µg/mL (≈ 0.335 µM) and 0.034 µg/mL (≈ 0.0911 µM).
As for `O=C1CC2CCCN2c2c(F)cc3c(=O)c(C(=O)O)cn(C4CC4)c3c2N1` (stereo not given), the results for the minimum inhibitory concentration (MIC) in experiment [1], in experiment [2] (setting [4]) and in experiment [3] (setting [5]) were above 64 µg/mL, above 64 µg/mL and 4 µg/mL (≈ 10.8 µM), respectively.
`O=C(O)c1cn(C2CC2)c2c3c(c(F)cc2c1=O)N1CCCC1C[S+]([O-])C3` (stereo in doubt; 441): the MIC is 4 µg/mL (≈ 10.2 µM) in experiment [2] and 1 µg/mL (≈ 2.56 µM) in experiment [3].
